Laboratory results published in ChEMBL document CHEMBL1146003, “Synthesis of 13-(substituted benzyl) berberine and berberrubine derivatives as antifungal agents” (2006).
Values after ≈ are worked out from the molar mass of the structure shown.

Columns and labels:
Assay type in all cases: functional
Candida albicans = assay: Antifungal activity against Candida albicans ATCC 10231 by broth microdilution method
Candida tropicalis = assay: Antifungal activity against Candida tropicalis ATCC 13803 by broth microdilution method
Clavispora lusitaniae = assay: Antifungal activity against Candida lusitaniae ATCC 42720 by broth microdilution method
Pichia kudriavzevii = assay: Antifungal activity against Candida krusei ATCC 6258 by broth microdilution method
Aspergillus fumigatus = assay: Antifungal activity against Aspergillus fumigatus ATCC 16424 by broth microdilution method
Aspergillus terreus = assay: Antifungal activity against Aspergillus terreus ATCC 46941 by broth microdilution method
Cryptococcus neoformans = assay: Antifungal activity against Cryptococcus neoformans ATCC 36556 by broth microdilution method

| MIC (Candida albicans) | MIC (Candida tropicalis) | MIC (Clavispora lusitaniae) | MIC (Pichia kudriavzevii) | MIC (Aspergillus fumigatus) | MIC (Aspergillus terreus) | MIC (Cryptococcus neoformans) | SMILES |
| --- | --- | --- | --- | --- | --- | --- | --- |
| 128 mg/L | 16 mg/L | > 128 mg/L | 32 mg/L | > 128 mg/L | > 128 mg/L | 64 mg/L | COc1ccc2cc3[n+](cc2c1OC)CCc1cc2c(cc1-3)OCO2.[Cl-] [BERBERINE CHLORIDE] |
| 16 mg/L | 16 mg/L | 8 mg/L | 32 mg/L | > 128 mg/L | > 128 mg/L | 8 mg/L | COc1ccc2c(Cc3ccc(C(C)(C)C)cc3)c3[n+](cc2c1O)CCc1cc2c(cc1-3)OCO2.[Cl-] |
| 128 mg/L | 64 mg/L | 128 mg/L | 64 mg/L | > 128 mg/L | > 128 mg/L | 64 mg/L | COc1ccc2c(Cc3cc(F)c(F)c(F)c3)c3[n+](cc2c1OC)CCc1cc2c(cc1-3)OCO2.[Cl-] |
| > 128 mg/L | 128 mg/L | 128 mg/L | 128 mg/L | > 128 mg/L | > 128 mg/L | 64 mg/L | COc1ccc2c(Cc3cc(F)c(F)c(F)c3)c3[n+](cc2c1O)CCc1cc2c(cc1-3)OCO2.[Cl-] |
| 128 mg/L | 64 mg/L | 128 mg/L | 64 mg/L | > 128 mg/L | > 128 mg/L | 32 mg/L | COc1cc(Cc2c3[n+](cc4c(OC)c(OC)ccc24)CCc2cc4c(cc2-3)OCO4)cc(OC)c1OC.[Cl-] |
| 4 mg/L | 2 mg/L | 8 mg/L | 8 mg/L | 64 mg/L | 64 mg/L | 4 mg/L | COc1ccc2c(Cc3ccc(C(C)(C)C)cc3)c3[n+](cc2c1OC)CCc1cc2c(cc1-3)OCO2.[Cl-] |

The remaining lines, values behind:

| SMILES | MIC (Candida albicans) | MIC (Candida tropicalis) | MIC (Clavispora lusitaniae) | MIC (Pichia kudriavzevii) | MIC (Aspergillus fumigatus) | MIC (Aspergillus terreus) | MIC (Cryptococcus neoformans) |
| --- | --- | --- | --- | --- | --- | --- | --- |
| COc1cc(Cc2c3[n+](cc4c(O)c(OC)ccc24)CCc2cc4c(cc2-3)OCO4)cc(OC)c1OC.[Cl-] | > 128 mg/L | 128 mg/L | 128 mg/L | > 128 mg/L | > 128 mg/L | > 128 mg/L | 32 mg/L |
| COc1ccc2c(Cc3cc(F)cc(F)c3)c3[n+](cc2c1O)CCc1cc2c(cc1-3)OCO2.[Cl-] | > 128 mg/L | 128 mg/L | 128 mg/L | 128 mg/L | > 128 mg/L | > 128 mg/L | 32 mg/L |
| COc1ccc2c(Cc3ccc(OC(F)(F)F)cc3)c3[n+](cc2c1O)CCc1cc2c(cc1-3)OCO2.[Cl-] | 64 mg/L | 32 mg/L | 32 mg/L | 32 mg/L | > 128 mg/L | > 128 mg/L | 16 mg/L |
| COc1ccc2c(Cc3ccc(C(C)C)cc3)c3[n+](cc2c1OC)CCc1cc2c(cc1-3)OCO2.[Cl-] | 4 mg/L | 1 mg/L | 8 mg/L | 4 mg/L | 64 mg/L | 32 mg/L | 4 mg/L |
| COc1ccc2c(Cc3ccc(C(C)C)cc3)c3[n+](cc2c1O)CCc1cc2c(cc1-3)OCO2.[Cl-] | 16 mg/L | 16 mg/L | 8 mg/L | 16 mg/L | > 128 mg/L | > 128 mg/L | 4 mg/L |
| COc1ccc2c(Cc3ccc(C(F)(F)F)cc3)c3[n+](cc2c1OC)CCc1cc2c(cc1-3)OCO2.[Cl-] | 32 mg/L | 16 mg/L | 32 mg/L | 32 mg/L | > 128 mg/L | > 128 mg/L | 16 mg/L |
| COc1ccc2c(Cc3cc(F)cc(F)c3)c3[n+](cc2c1OC)CCc1cc2c(cc1-3)OCO2.[Cl-] | 128 mg/L | 32 mg/L | 64 mg/L | 64 mg/L | > 128 mg/L | > 128 mg/L | 32 mg/L |
| COc1ccc2c(Cc3ccc(OC(F)(F)F)cc3)c3[n+](cc2c1OC)CCc1cc2c(cc1-3)OCO2.[Cl-] | 16 mg/L | 8 mg/L | 32 mg/L | 16 mg/L | > 128 mg/L | > 128 mg/L | 16 mg/L |
| COc1ccc2c(Cc3ccc(C(F)(F)F)cc3)c3[n+](cc2c1O)CCc1cc2c(cc1-3)OCO2.[Cl-] | 128 mg/L | 64 mg/L | 64 mg/L | 64 mg/L | > 128 mg/L | > 128 mg/L | 16 mg/L |
| C[C@@H]1[C@H](O)[C@@H](C)/C=C/C=C/C=C/C=C/C=C/C=C/C=C/[C@H](O[C@@H]2O[C@H](C)[C@@H](O)[C@H](N)[C@@H]2O)C[C@@H]2O[C@](O)(C[C@@H](O)C[C@@H](O)[C@H](O)CC[C@@H](O)C[C@@H](O)CC(=O)O[C@H]1C)C[C@H](O)[C@H]2C(=O)O [AMPHOTERICIN B] | 0.5 mg/L (≈ 0.541 µM) | 0.5 mg/L (≈ 0.541 µM) | 1 mg/L (≈ 1.08 µM) | 0.5 mg/L (≈ 0.541 µM) | 1 mg/L (≈ 1.08 µM) | 16 mg/L (≈ 17.3 µM) | 0.25 mg/L (≈ 0.271 µM) |
| COc1ccc2cc3[n+](cc2c1O)CCc1cc2c(cc1-3)OCO2 [BERBERRUBINE] | > 128 mg/L | 128 mg/L | > 128 mg/L | > 128 mg/L | > 128 mg/L | > 128 mg/L | > 128 mg/L |
